Structures are written as SMILES. Structures can show the parent of a compound that is named as a salt.

For orientation: IC50 means the concentration at which inhibition is half-maximal. By inhibition is commonly meant the drop in the measured response relative to a control, in per cent.

For one assay, the target named is T1, mGluR5 receptor (Sus scrofa, UniProt I3LUI7).
T1 construct: 450 μg of protein from brain homogenate with 5 nM ^3[H]-MPEP; from tissue; host or cells: pig brain halves without medulla, cerebellum and pons
T1 sequence (I3LUI7 19-1212): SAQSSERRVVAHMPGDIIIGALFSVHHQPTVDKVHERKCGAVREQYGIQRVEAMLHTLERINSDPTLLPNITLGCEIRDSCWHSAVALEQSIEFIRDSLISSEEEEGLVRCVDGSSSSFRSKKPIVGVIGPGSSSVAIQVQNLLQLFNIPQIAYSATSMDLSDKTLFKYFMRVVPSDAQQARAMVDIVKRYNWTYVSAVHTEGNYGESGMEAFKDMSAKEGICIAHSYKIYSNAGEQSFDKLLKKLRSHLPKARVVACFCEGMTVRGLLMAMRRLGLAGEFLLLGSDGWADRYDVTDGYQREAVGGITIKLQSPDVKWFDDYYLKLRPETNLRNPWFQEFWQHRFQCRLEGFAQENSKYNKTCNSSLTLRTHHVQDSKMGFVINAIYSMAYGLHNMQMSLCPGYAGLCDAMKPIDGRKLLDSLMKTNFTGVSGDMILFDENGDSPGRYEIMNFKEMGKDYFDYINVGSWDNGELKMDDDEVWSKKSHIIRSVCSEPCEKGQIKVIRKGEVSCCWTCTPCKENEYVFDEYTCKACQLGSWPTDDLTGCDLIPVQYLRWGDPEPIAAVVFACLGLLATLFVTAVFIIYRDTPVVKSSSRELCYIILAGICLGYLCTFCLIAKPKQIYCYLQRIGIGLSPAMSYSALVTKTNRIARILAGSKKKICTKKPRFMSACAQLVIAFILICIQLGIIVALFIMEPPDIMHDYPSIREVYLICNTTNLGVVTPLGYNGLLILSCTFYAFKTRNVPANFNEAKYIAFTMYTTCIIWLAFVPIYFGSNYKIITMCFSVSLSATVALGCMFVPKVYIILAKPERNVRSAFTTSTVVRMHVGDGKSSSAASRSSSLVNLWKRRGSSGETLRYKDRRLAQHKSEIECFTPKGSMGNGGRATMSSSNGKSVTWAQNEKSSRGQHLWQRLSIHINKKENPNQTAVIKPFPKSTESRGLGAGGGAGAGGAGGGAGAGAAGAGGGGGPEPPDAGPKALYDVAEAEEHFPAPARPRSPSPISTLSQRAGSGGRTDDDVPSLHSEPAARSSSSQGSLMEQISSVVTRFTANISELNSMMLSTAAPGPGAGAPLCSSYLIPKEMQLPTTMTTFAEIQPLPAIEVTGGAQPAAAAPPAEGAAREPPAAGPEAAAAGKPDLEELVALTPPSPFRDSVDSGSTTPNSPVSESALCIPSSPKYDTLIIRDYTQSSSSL
The assay can be described thus: [3H]-MPEP mGluR5 receptor binding assay (pig brain homogenate). The following applies: 5 nM [3H]-MPEP, read-out: IC50 mGluR5 Receptor (pig) [^3H]-MPEP Bond. The method, boiled down: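 Radioligand displacement of 5 nM [3H]-MPEP from pig brain homogenate (450 μg protein; medulla, cerebellum and pons removed) in 20 mM Hepes pH 8.0. Compounds were tested at 10 μM, incubated 60 min at room temperature, then filtered and counted by scintillation. Non-specific binding was defined with 10 μM MPEP.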
For the compound `c1ccc(N(Cc2cccc(-c3ccc4ncnc(NC5CC5)c4c3)c2)C2CC2)nc1` [Example 888, N-cyclopropyl-6-(3-((cyclopropyl(pyridin-2-yl)amino)methyl)phenyl)quinazoline-4-amine], the IC50 amounted to 2650 nM. On to `Fc1ccc(-c2ccc3ncnc(NC4CC4)c3c2)cc1CNC1CC1` [Example 299, N-cyclopropyl-6-(3-((cyclopropylamino)methyl)-4-fluorophenyl)quinazoline-4-amine], for which the IC50 came to 2010 nM.

As for `CCN(Cc1cccc(-c2ccc3ncnc(NC4CC4)c3c2)c1)C(C)=O` [Example 894, N-(3-(4-(cyclopropylamino)quinazolin-6-yl)benzyl)-N-ethylacetamide], the IC50 was found to be 1000 nM. The same measure, in the same setting: to `O=C1CCC(=O)N1Cc1cccc(-c2cc(C(F)(F)F)c3ncnc(NC4CC4)c3c2)c1` [Example 883, 1-(3-(4-(cyclopropylamino)-8-(trifluoromethyl)quinazolin-6-yl)benzyl)pyrrolidine-2,5-dione] belongs 20 nM. The same measure, in the same setting: for `O=C1C2CCCCC2C(=O)N1Cc1cccc(-c2ccc3ncnc(NC4CC4)c3c2)c1` (stereo not drawn) [Example 228, 2-[3-(4-cyclopropylamino-quinazolin-6-yl)-benzyl]-hexahydro-isoindole-1,3-dione; hydrochloride] the value was 8700 nM; for `O=C(CCl)N(Cc1cc(-c2ccc3ncnc(NC4CC4)c3c2)ccc1F)C1CC1` [Example 283, 2-chloro-N-cyclopropyl-N-(5-(4-(cyclopropylamino)quinazolin-6-yl)-2-fluorobenzyl)acetamide], 290 nM. With `COC(=O)CC(=O)N(Cc1cccc(-c2ccc3ncnc(NC4CC4)c3c2)c1)C1CC1` [Example 237, N-cyclopropyl-N-[3-(4-cyclopropylamino-quinazolin-6-yl)-benzyl]-methyl malonate], the IC50 was determined as 570 nM. On to `CCCCN(Cc1cccc(-c2ccc3ncnc(NC4CC4)c3c2)c1)C(C)=O` [Example 218, N-butyl-N-[3-(4-cyclopropylamino-quinazolin-6-yl)-benzyl]-acetamide; hydrochloride], for which the IC50 was found to be 2990 nM.

Staying with this assay, now noted: 10 μM compound, 5 nM [3H]-MPEP.
With `O=C(c1ccccc1)N(Cc1cc(-c2ccc3ncnc(NC4CC4)c3c2)ccc1Cl)C1CC1` [Example 783, N-(2-chloro-5-(4-(cyclopropylamino)quinazolin-6-yl)benzyl)-N-cyclopropyl benzamide], the “% Inhibition of mGluR5 Receptor (pig) [^3H]-MPEP Bond at 10 μM” value (shortened to “% Inhibition of mGluR5 Receptor (pig)”) is 93%. With `CC(C)(C)Nc1ncnc2ccc(-c3ccc(F)c(CN(C(=O)c4ccno4)C4CC4)c3)cc12` [Example 834, N-(5-(4-(tert-butylamino)quinazolin-6-yl)-2-fluorobenzyl)-N-cyclopropyl isoxazole-5-carboxamide], the “% Inhibition of mGluR5 Receptor (pig)” value is 42%. `O=S(=O)(c1cccc(C(F)(F)F)c1)N(Cc1cc(-c2ccc3ncnc(NC4CC4)c3c2)ccc1F)C1CC1` [Example 375, N-cyclopropyl-N-(5-(4-(cyclopropylamino)quinazolin-6-yl)-2-fluorobenzyl)-3-(trifluoromethyl)benzole sulfonamide]: the “% Inhibition of mGluR5 Receptor (pig)” value is 34%.

Still in this assay, the particulars now being: 10 μM compound, 5 nM [3H]-MPEP, read-out: % Inhibition of mGluR5 Receptor (pig) [^3H]-MPEP Bond at 10 μM.
In the case of `O=S(=O)(Cc1ccccc1)N(Cc1cc(-c2ccc3ncnc(NC4CC4)c3c2)ccn1)C1CC1` [Example 805, N-cyclopropyl-N-((4-(4-(cyclopropylamino)quinazolin-6-yl)pyridin-2-yl)methyl)-1-phenylmethane sulfonamide], the inhibition at 10 µM came to 92%. Still for that read-out and setting: to `O=C(C1CCCCC1)N(Cc1cc(-c2ccc3ncnc(NC4CC4)c3c2)ccc1F)C1CC1` [Example 452, N-cyclopropyl-N-(5-(4-(cyclopropylamino)quinazolin-6-yl)-2-fluorobenzyl)cyclohexane carboxamide] belongs 71%; to `CC(C)S(=O)(=O)N(C)Cc1cc(-c2ccc3ncnc(NCc4ccccc4)c3c2)ccc1F` [Example 484, N-(5-(4-(benzylamino)quinazolin-6-yl)-2-fluorobenzyl)-N-methylpropane-2-sulfonamide], 63%. Take `O=C(c1ccc(F)cc1F)N(Cc1cc(-c2ccc3ncnc(NC4CC4)c3c2)ccc1F)C1CC1` [Example 381, N-cyclopropyl-N-(5-(4-(cyclopropylamino)quinazolin-6-yl)-2-fluorobenzyl)-2,4-difluorobenzamide]: the inhibition at 10 µM turned out to be 90%.

With `CC(C)(C)OC(=O)NCc1cccc(-c2ccc3ncnc(NC4CC4)c3c2)c1` [Example 295, tert-butyl 3-(4-(cyclopropylamino)quinazolin-6-yl)benzylcarbamate], the inhibition at 10 µM is 0%. As for `COCC(=O)N(C)Cc1cc(-c2ccc3ncnc(NCc4ccccc4)c3c2)ccc1F` [Example 557, N-(5-(4-(benzylamino)quinazolin-6-yl)-2-fluorobenzyl)-2-methoxy-N-methylacetamide], the inhibition at 10 µM was found to be 42%. As to `Cc1cc2ncnc(NC3CC3)c2cc1-c1cccc(CN(C(=O)CN(C)C)C2CC2)c1` [Example 723, N-cyclopropyl-N-(3-(4-(cyclopropylamino)-7-methylquinazolin-6-yl)benzyl)-2-(dimethylamino)acetamide], the inhibition at 10 µM amounted to 43%. Regarding `O=C(c1ccc(F)cc1F)N(Cc1cc(-c2ccc3ncnc(NC4CC4)c3c2)ccc1Cl)C1CC1` [Example 792, N-(2-chloro-5-(4-(cyclopropylamino)quinazolin-6-yl)benzyl)-N-cyclopropyl-2,4-difluorobenzamide], the inhibition at 10 µM is 88%. The same measure, in the same setting: to `O=C(c1cccc(F)c1)N(Cc1cc(-c2ccc3ncnc(NC4CC4)c3c2)ccc1F)C1CC1` [Example 374, N-cyclopropyl-N-(5-(4-(cyclopropylamino)quinazolin-6-yl)-2-fluorobenzyl)-3-fluorobenzamide] belongs 91%; to `CC(C)CN(Cc1cccc(-c2ccc3ncnc(N4CCOCC4)c3c2)c1)C(=O)c1cnccn1` [Example 13, pyrazine-2-carboxylic acid isobutyl-[3-(4-morpholin-4-yl-quinazolin-6-yl)-benzyl]-amide], 36%; to `Cc1nc(NC2CC2)c2cc(-c3ccc(F)c(CN(C(=O)c4ccc(F)cc4F)C4CC4)c3)ccc2n1` [Example 524, N-cyclopropyl-N-(5-(4-(cyclopropylamino)-2-methylquinazolin-6-yl)-2-fluorobenzyl)-2,4-difluorobenzamide], 85%. On the same count and under the same terms, for `Cc1cc2ncnc(NC3CC3)c2cc1-c1cccc(CN(C(=O)c2cccc(C(F)(F)F)c2)C2CC2)c1` [Example 676, N-cyclopropyl-N-(3-(4-(cyclopropylamino)-7-methylquinazolin-6-yl)benzyl)-3-(trifluoromethyl)benzamide] the value was 75%; for `COc1ccc(C(=O)N(Cc2cc(-c3ccc4ncnc(NC5CC5)c4c3)ccc2F)C2CC2)cc1OC` [Example 366, N-cyclopropyl-N-(5-(4-(cyclopropylamino)quinazolin-6-yl)-2-fluorobenzyl)-3,4-dimethoxybenzamide], 90%; for `COc1ccc(C(=O)N(Cc2cccc(-c3cc4c(NC5CC5)ncnc4cc3C)c2)C2CC2)cc1OC` [Example 722, N-cyclopropyl-N-(3-(4-(cyclopropylamino)-7-methylquinazolin-6-yl)benzyl)-3,4-dimethoxybenzamide], 72%. Take `O=C(c1ccccc1C(F)(F)F)N(Cc1cc(-c2ccc3ncnc(NC4CC4)c3c2)ccc1Cl)C1CC1` [Example 740, N-(2-chloro-5-(4-(cyclopropylamino)quinazolin-6-yl)benzyl)-N-cyclopropyl-2-(trifluoromethyl)benzamide]: the inhibition at 10 µM came to 85%.

For `Cc1nc(C(=O)N(Cc2cc(-c3ccc4ncnc(NC5CC5)c4c3)ccc2Cl)C2CC2)cs1` [Example 769, N-(2-chloro-5-(4-(cyclopropylamino)quinazolin-6-yl)benzyl)-N-cyclopropyl-2-methylthiazole-4-carboxamide], the inhibition at 10 µM was 83%. On to `COc1ccc(CNc2ncnc3ccc(-c4cccc(CN(C(C)=O)C5CC5)c4)cc23)c(OC)c1` [Example 657, N-cyclopropyl-N-(3-(4-(2,4-dimethoxybenzylamino)quinazolin-6-yl)benzyl)acetamide], for which the inhibition at 10 µM amounted to 36%. For `CCN(CC)c1ncnc2ccc(-c3cccc(CN(C)C(=O)c4ccc(C)cc4)c3)cc12` [Example 75, N-[3-(4-diethylamino-quinazolin-6-yl)-benzyl]-4,N-dimethyl-benzamide], the inhibition at 10 µM is 32%.

Consider `O=C(c1ccc(C(F)(F)F)cc1F)N(Cc1ccccc1)Cc1cccc(-c2ccc3ncnc(NC4CC4)c3c2)c1` [Example 152, N-benzyl-N-[3-(4-cyclopropylamino-quinazolin-6-yl)-benzyl]-2-fluoro-4-trifluoromethyl-benzamide], for which the inhibition at 10 µM came out at 45%. On the same count and under the same terms, for `CS(=O)(=O)N(Cc1cc(-c2ccc3ncnc(NC4CC4)c3c2)ccn1)C1CC1` [Example 853, N-cyclopropyl-N-((4-(4-(cyclopropylamino)quinazolin-6-yl)pyridin-2-yl)methyl)methane sulfonamide] the value was 67%.

Consider `O=S(=O)(c1cccc2cccnc12)N(Cc1cc(-c2ccc3ncnc(NC4CC4)c3c2)ccc1Cl)C1CC1` [Example 742, N-(2-chloro-5-(4-(cyclopropylamino)quinazolin-6-yl)benzyl)-N-cyclopropylquinoline-8-sulfonamide], for which the inhibition at 10 µM worked out at 69%. Regarding `CS(=O)(=O)N(Cc1cncc(-c2ccc3ncnc(NC4CC4)c3c2)c1)C1CC1` [Example 234, N-cyclopropyl-N-[5-(4-cyclopropylamino-quinazolin-6-yl)-pyridin-3-yl-methyl]-methane sulfonamide], the inhibition at 10 µM is 41%.

For the origin of these results see patent publication US20090069320A1, “Substituted 4-Amino-Quinazoline Compounds with Metabotropic Glutamate Receptor Regulating Activity and Uses Thereof” (Gruenenthal GmbH, priority 2006, published 2009).
